Laboratory results from patent US5753650A, “Inhibitors of farnesyl-protein transferase” (Merck & Co., Inc., priority 1996, dated 1998).
pIC50: −log10 of the molar value.

The compounds below were run against Farnesyl-protein transferase (FTase) (assay: In vitro inhibition of Ras farnesyl transferase (farnesylation of Ras-CVLS with [3H]FPP)). Conditions: Ras-CVLS 3.5 μM, [3H]FPP 0.25 μM; partially purified bovine or recombinant human enzyme; read-out: IC50 (concentration of the test compound which gives 50% inhibition of FTase).
Format: biochemical
Procedure: Farnesyl-protein transferase (FTase) from bovine brain was chromatographed on DEAE-Sephacel (Pharmacia, 0-0.8 M NaCl gradient elution), N-octyl agarose (Sigma, 0-0.6 M NaCl gradient elution), and a mono Q HPLC column (Pharmacia, 0-0.3 M NaCl gradient). Ras-CVLS at 3.5 μM, 0.25 μM [^3 H]FPP, and the indicated compounds were incubated with either a partially purified bovine enzyme preparation or a recombinant human enzyme preparation. The recombinant human enzyme was prepared as described in Omer, C. A., Kral, A. M., Diehl, R. E., Prendergast, G. C., Powers, S., Allen, C. M., Gibbs, J. B. and Kohl, N. E. (1993) Biochemistry 32:5167-5176. The FTase data presented below in Table 1 reflects the ability of the test compound to inhibit RAS farnesylation in vitro, as described in Pompliano, et al. Biochemistry 31:3800 (1992).
*(IC50 is the concentration of the test compound which gives 50%
inhibition of FTase under the described assay conditions)

Compound	pIC50
N[C@@H](CS)C(=O)NC1N=C(c2ccccc2)c2ccccc2NC1=O (single isomer, unassigned) [2 - faster eluting isomer]	5.80
3-[N-2(S)-amino-3-mercaptopropionyl-N-methyl]amino-2,3-dihydro-2-oxo-5-phenyl-1H-1,4-benzodiazepine [1 - slower eluting isomer]	6.96
CN(C(=O)[C@@H](N)CS)C1N=C(c2ccccc2)c2ccccc2NC1=O (single isomer, unassigned) [1 - faster eluting isomer]	5.59
N[C@@H](CS)C(=O)NC1N=C(c2ccccc2)c2ccccc2NC1=O (single isomer, unassigned) [2 - slower eluting isomer]	4.38
